Experimental data published in patent publication US4593090A, “Novel nitrosourea compounds, method for preparing same, and pharmaceutical composition containing same” (Gogo Kimura, priority 1981, dated 1986).

Columns and labels:
Leukemia L1210 = experiment: Activity against Leukemia L1210, intraperitoneal, increase in life span of mice; format: in vivo, female mice (BDF1 family); conditions: for ED (maximum ILS) / ED30: Mus musculus, L1210, ip; for ED (maximum ILS): read-out: O.D. (optimum dosage); for ED30: read-out: ILS30; for Survivors after 60 days / Max. ILS % / Therapeutic ratio TR: ip; for Survivors after 60 days: 6-membered group; for Max. ILS %: 60-day observation, versus control; for Therapeutic ratio TR: O.D./ILS30
Method in brief: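 Mice (female BDF1, 20–23 g) carrying 1×10^5 ip-implanted L1210 cells were given daily ip or oral doses for 5 days; ILS% came from mean survival over 60 days relative to controls.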

[1] = Acute toxicity (LD50, Behrens-Karber method); format: in vivo, ICR mice; conditions: ip, mortality during 30 days; for LD50 at 720 h: mouse, in vivo
Experimental: Test compounds, dissolved or suspended in 0.5% aqueous CMC, were each intraperitoneally administered to ICR mice in a dose of 0.1 ml per 10 g body weight. LD50 (mg/kg) value of each test compound was calculated from the mortality of mice during 30 days by the Behrens-Karber method.

[2] = ip once a day for 5 successive days, daily dosage giving maximum increase of life span
[3] = ip once a day for 5 successive days, daily dosage increasing average survival days by 30%

Compound | ED (maximum ILS) (Leukemia L1210; [2]) [mg/kg] | ED30 (Leukemia L1210; [3]) [mg/kg] | Survivors after 60 days (Leukemia L1210) | Max. ILS % (Leukemia L1210) [%] | Therapeutic ratio TR (Leukemia L1210) | LD50 at 720 h [1] [mg/kg] | O.D. (optimum dosage) (Leukemia L1210; [2]) [mg/kg] | ILS30 (Leukemia L1210; [3]) [mg/kg] | LD50 ([1]; 43200 min) [mg/kg]
CCOCCO[C@H]1O[C@H](CO)[C@H](N(CC(C)C)C(=O)N(CCCl)N=O)[C@H](O)[C@H]1O [Compound 131, 3-isobutyl-3-(2-ethoxyethyl α-D-galacropyranose-4-yl)-1-(2-chloroethyl)-1-nitrosourea] | 160 | 3.98 | 4/6 | > 430 | 40.2 | 565 |  |  | 
CC(C)CO[C@@H]1O[C@H](CO)[C@@H](O)[C@H](O)[C@H]1N(C(=O)N(CCCl)N=O)C(C)(C)C [Compound 176, 3-tert-butyl-3-(isobutyl β-D-glucopyranose-2-yl)-1-(2-chloroethyl)-1-nitrosourea] | 180 | 5.9 | 6/6 | > 700 | 30.5 | 620 |  |  | 
CC(C)CO[C@H]1O[C@H](CO)[C@@H](O)[C@H](O)[C@H]1N(Cc1ccccc1)C(=O)N(CCCl)N=O [Compound 62, 3-benzyl-3-(isobutyl α-D-glucopyranose-2-yl)-1-(2-chloroethyl)-1-nitrosourea] | 200 | 7.8 | 3/6 | > 340 | 25.6 | 565 |  |  | 
CC(C)COC1OC(CO)C(N(C(=O)N(CCCl)N=O)C(C)C)C(O)C1O [Compound 92, 3-isopropyl-3-(isobutyl α-D-glucopyranose-4-yl)-1-(2-chloroethyl)-1-nitrosourea] | 100 | 3.14 | 3/6 | > 360 | 31.8 | 335 |  |  | 
COCC(C)OC1OC(CO)C(O)C(N(CC(C)C)C(=O)N(CCCl)N=O)C1O [Compound 79, 3-isobutyl-3-(1-methyl-2-methoxyethyl α-D-glucopyranose-3-yl)-1-(2-chloroethyl)-1-nitrosourea] | 200 | 4.93 | 4/6 | > 430 | 40.6 | 690 |  |  | 
C=C(C)CN(C(=O)N(CCCl)N=O)[C@H]1[C@@H](OCCCC)O[C@H](CO)[C@@H](O)[C@@H]1O [Compound 56, 3-(2-methyl-2-propenyl)-3-(n-butyl α-D-glucopyranose-2-yl)-1-(2-chloroethyl)-1-nitrosourea] | 170 | 5.38 | 3/6 | > 360 | 31.6 | 460 |  |  | 
CC(C)CN(C[C@H]1O[C@H](OC2CCCCC2)[C@H](O)[C@@H](O)[C@@H]1O)C(=O)N(CCCl)N=O [Compound 36, 3-isobutyl-3-(cyclohexylα-D-glucopyranose-6-yl)-1-(2-chloroethyl)-1-nitrosourea] | 180 | 3.69 | 6/6 | > 700 | 48.8 | 580 |  |  | 
CC(C)CN(C[C@H]1O[C@@H](OCCN2CCOCC2)[C@H](O)[C@@H](O)[C@@H]1O)C(=O)N(CCCl)N=O [Compound 199, 3-isobutyl-3-(2-morpholinoethyl β-D-glucopyranose-6-yl)-1-(2-chloroethyl)-1-nitrosourea] | 160 | 3.2 | 6/6 | > 700 | 50.0 | 520 |  |  | 
CCOCCCOC1OC(CO)C(O)C(N(CC(C)C)C(=O)N(CCCl)N=O)C1O [Compound 78, 3-isobutyl-3-(3-ethoxy-n-propyl α-D-glucopyranose-3-yl)-1-(2-chloroethyl)-1-nitrosourea] | 200 | 5.33 | 3/6 | > 355 | 37.5 | 675 |  |  | 
Cc1ccc(CN(C[C@H]2O[C@H](OC3CCCCC3)[C@H](O)[C@@H](O)[C@@H]2O)C(=O)N(CCCl)N=O)cc1 [Compound 47, 3-(p-methylbenzyl)-3-(cyclohexyl α-D-glucopyranose-6-yl)-1-(2-chloroethyl)-1-nitrosourea] | 170 | 4.97 | 4/6 | > 440 | 34.2 | 545 |  |  | 
COCCCOC1OC(CO)C(O)C(O)C1N(CC(C)C)C(=O)N(CCCl)N=O [Compound 68, 3-isobutyl-3-(3-methoxy-n-propyl α-D-glucopyranose-2-yl)-1-(2-chloroethyl)-1-nitrosourea] | 170 | 4.43 | 4/6 | > 425 | 38.4 | 500 |  |  | 
C=C(C)CN(C(=O)N(CCCl)N=O)C1C(O)C(CO)OC(OC(C)CC)C1O [Compound 85, 3-(2-methyl-2-propenyl)-3-(sec-butyl α-D-glucopyranose-3-yl)-1-(2-chloroethyl)-1-nitrosourea] | 220 | 7.25 | 3/6 | > 360 | 30.3 | 685 |  |  | 
CCOCCN(C[C@H]1O[C@H](OC2CCCCC2)[C@H](O)[C@@H](O)[C@H]1O)C(=O)N(CCCl)N=O [Compound 102, 3-(2-ethoxyethyl)-3-(cyclohexyl α-D-galactopyranose-6-yl)-1-(2-chloroethyl)-1-nitrosourea] | 200 | 3.81 | 5/6 | > 625 | 52.5 | 680 |  |  | 
CCC(COC)O[C@H]1O[C@H](CN(CC(C)(C)C)C(=O)N(CCCl)N=O)[C@@H](O)[C@H](O)[C@H]1O (stereo partly drawn) [Compound 196, 3-neopentyl-3-(1-methoxy-sec-butyl α-D-glucopyranose-6-yl)-1-(2-chloroethyl)-1-nitrosourea] |  |  | 6/6 | > 700 | 63.4 |  | 160 | 2.52 | 560
C=C(C)CN(C(=O)N(CCCl)N=O)C1C(CO)OC(OC(C)CC)C(O)C1O [Compound 91, 3-(2-methyl-2-propenyl)-3-(sec-butyl α-D-glucopyranose-4-yl)-1-(2-chloroethyl)-1-nitrosourea] | 150 | 4.65 | 3/6 | > 340 | 32.3 | 450 |  |  | 
CCCCCCN(C[C@H]1O[C@H](OCCCC)[C@H](O)[C@@H](O)[C@@H]1O)C(=O)N(CCCl)N=O [Compound 7, 3-n-hexyl-3-(n-butyl α-D-glucopyranose-6-yl)-1-(2-chloroethyl)-1-nitrosourea] | 140 | 5.2 | 5/6 | > 620 | 26.9 | 410 |  |  | 
CC(C)CN(C(=O)N(CCCl)N=O)[C@@H]1[C@H](OC2CCCCC2)O[C@H](CO)[C@H]1O [Compound 162, 3-isobutyl-3-(cyclohexyl β-D-arabinofuranose-2-yl)-1-(2-chloroethyl)-1-nitrosourea] | 160 | 5.63 | 3/6 | > 350 | 28.4 | 500 |  |  | 
